Reference: the NIST ThermoML archive (doi:10.1021/acs.jced.5b00934)

Conditions: Liquid, Vibrating tube method

CC(C)(C)O [2-methylpropan-2-ol]
Conditions | mass density [kg/m3]
333.15 K, 50000 kPa | 788.7
333.15 K, 52050 kPa | 790.2
333.15 K, 55010 kPa | 792.3
333.15 K, 57996 kPa | 794.3
333.15 K, 60003 kPa | 795.6
338.15 K, 100 kPa | 737.1
338.15 K, 309 kPa | 737.3
338.15 K, 505 kPa | 737.6
338.15 K, 898 kPa | 738.1
338.15 K, 1003 kPa | 738.2
338.15 K, 2001 kPa | 739.5
338.15 K, 3005 kPa | 740.8
338.15 K, 5003 kPa | 743.2
338.15 K, 7014 kPa | 745.6
338.15 K, 9004 kPa | 747.9
338.15 K, 10002 kPa | 749
338.15 K, 11998 kPa | 751.2
338.15 K, 14999 kPa | 754.4
338.15 K, 17997 kPa | 757.5
338.15 K, 20007 kPa | 759.4
338.15 K, 21999 kPa | 761.4
338.15 K, 25000 kPa | 764.2
338.15 K, 27994 kPa | 766.9
338.15 K, 30011 kPa | 768.6
338.15 K, 32005 kPa | 770.4
338.15 K, 32998 kPa | 771.2
338.15 K, 33033 kPa | 771.2
338.15 K, 34007 kPa | 772
338.15 K, 35000 kPa | 772.9
338.15 K, 38031 kPa | 775.3
338.15 K, 40024 kPa | 776.9
338.15 K, 41998 kPa | 778.5
338.15 K, 43195 kPa | 779.4
338.15 K, 44574 kPa | 780.4
338.15 K, 46152 kPa | 781.6
338.15 K, 48333 kPa | 783.3
338.15 K, 50050 kPa | 784.5
338.15 K, 52462 kPa | 786.3
338.15 K, 56690 kPa | 789.2
338.15 K, 60003 kPa | 791.5
343.15 K, 99 kPa | 731
343.15 K, 305 kPa | 731.3
343.15 K, 503 kPa | 731.6
343.15 K, 901 kPa | 732.1
343.15 K, 1002 kPa | 732.2
343.15 K, 2000 kPa | 733.6
343.15 K, 3001 kPa | 734.9
343.15 K, 5005 kPa | 737.5
343.15 K, 7004 kPa | 740
343.15 K, 9033 kPa | 742.4
343.15 K, 10020 kPa | 743.6
343.15 K, 12001 kPa | 745.8
343.15 K, 15002 kPa | 749.1
343.15 K, 18001 kPa | 752.3
343.15 K, 20018 kPa | 754.4
343.15 K, 21994 kPa | 756.4
343.15 K, 25026 kPa | 759.3
343.15 K, 27993 kPa | 762.1
343.15 K, 30004 kPa | 763.9
343.15 K, 32000 kPa | 765.7
343.15 K, 32963 kPa | 766.6
343.15 K, 33001 kPa | 766.6
343.15 K, 34002 kPa | 767.5
343.15 K, 35003 kPa | 768.3
343.15 K, 38027 kPa | 770.8
343.15 K, 39998 kPa | 772.5
343.15 K, 42000 kPa | 774.1
348.15 K, 98 kPa | 725.1
348.15 K, 295 kPa | 725.3
348.15 K, 498 kPa | 725.7
348.15 K, 898 kPa | 726.2
348.15 K, 1004 kPa | 726.4
348.15 K, 2006 kPa | 727.8
348.15 K, 3001 kPa | 729.2
348.15 K, 5005 kPa | 731.9
348.15 K, 6999 kPa | 734.5
348.15 K, 9012 kPa | 737
348.15 K, 10014 kPa | 738.2
348.15 K, 12003 kPa | 740.6
348.15 K, 14999 kPa | 744
348.15 K, 17999 kPa | 747.3
348.15 K, 20000 kPa | 749.4
348.15 K, 21998 kPa | 751.5
348.15 K, 24996 kPa | 754.4
348.15 K, 27995 kPa | 757.3
348.15 K, 30045 kPa | 759.3
348.15 K, 32000 kPa | 761
348.15 K, 32878 kPa | 761.8
348.15 K, 33012 kPa | 761.9
348.15 K, 34000 kPa | 762.8
348.15 K, 35001 kPa | 763.7
348.15 K, 38001 kPa | 766.3
348.15 K, 39999 kPa | 768
348.15 K, 41997 kPa | 769.6
348.15 K, 44999 kPa | 772
353.15 K, 99 kPa | 719
353.15 K, 300 kPa | 719.3
353.15 K, 501 kPa | 719.6
353.15 K, 897 kPa | 720.2
353.15 K, 1000 kPa | 720.3
353.15 K, 2000 kPa | 721.8
353.15 K, 2999 kPa | 723.2
353.15 K, 4999 kPa | 726.1
353.15 K, 6999 kPa | 728.8
353.15 K, 8998 kPa | 731.4
353.15 K, 10003 kPa | 732.6
353.15 K, 11997 kPa | 735.1
353.15 K, 15001 kPa | 738.7
353.15 K, 17999 kPa | 742.1
353.15 K, 20000 kPa | 744.2
353.15 K, 21999 kPa | 746.4
353.15 K, 24997 kPa | 749.4
353.15 K, 27999 kPa | 752.5
353.15 K, 30004 kPa | 754.4
353.15 K, 32003 kPa | 756.3
353.15 K, 32985 kPa | 757.1
353.15 K, 33002 kPa | 757.2
353.15 K, 34000 kPa | 758.1
353.15 K, 35004 kPa | 759
353.15 K, 38477 kPa | 762.2
353.15 K, 40002 kPa | 763.4
353.15 K, 42035 kPa | 765.1
353.15 K, 45022 kPa | 767.6
353.15 K, 48092 kPa | 770.1
353.15 K, 49989 kPa | 771.5
358.15 K, 103 kPa | 712.8
358.15 K, 293 kPa | 713.1
358.15 K, 498 kPa | 713.4
358.15 K, 899 kPa | 714
358.15 K, 1003 kPa | 714.2
358.15 K, 2008 kPa | 715.7
358.15 K, 3003 kPa | 717.3
358.15 K, 5003 kPa | 720.2
358.15 K, 7003 kPa | 723
358.15 K, 9001 kPa | 725.8
358.15 K, 9998 kPa | 727.1
358.15 K, 12010 kPa | 729.7
358.15 K, 14999 kPa | 733.3
358.15 K, 18040 kPa | 736.9
358.15 K, 19997 kPa | 739.1
358.15 K, 21995 kPa | 741.3
358.15 K, 25017 kPa | 744.5
358.15 K, 27994 kPa | 747.6
358.15 K, 29991 kPa | 749.6
358.15 K, 32001 kPa | 751.5
358.15 K, 32997 kPa | 752.5
358.15 K, 33015 kPa | 752.5
358.15 K, 34056 kPa | 753.5
358.15 K, 35075 kPa | 754.4
358.15 K, 37998 kPa | 757
358.15 K, 40001 kPa | 758.8
358.15 K, 42007 kPa | 760.6
358.15 K, 45002 kPa | 763.1
358.15 K, 47995 kPa | 765.5
358.15 K, 50001 kPa | 767
363.15 K, 299 kPa | 706.4
363.15 K, 502 kPa | 706.8
363.15 K, 901 kPa | 707.4
363.15 K, 1002 kPa | 707.6
363.15 K, 2001 kPa | 709.2
363.15 K, 3005 kPa | 710.8
363.15 K, 5002 kPa | 713.9
363.15 K, 7023 kPa | 716.9
363.15 K, 9001 kPa | 719.7
363.15 K, 10009 kPa | 721.1
363.15 K, 12038 kPa | 723.8
363.15 K, 14998 kPa | 727.6
363.15 K, 18000 kPa | 731.3
363.15 K, 20033 kPa | 733.7
363.15 K, 22005 kPa | 735.9
363.15 K, 25000 kPa | 739.2
363.15 K, 28009 kPa | 742.4
363.15 K, 30011 kPa | 744.4
363.15 K, 32033 kPa | 746.5
363.15 K, 32982 kPa | 747.4
363.15 K, 33012 kPa | 747.4
363.15 K, 34035 kPa | 748.4
363.15 K, 34999 kPa | 749.3
363.15 K, 37998 kPa | 752.1
363.15 K, 39147 kPa | 753.2
363.15 K, 40009 kPa | 753.9
363.15 K, 41998 kPa | 755.7
363.15 K, 44999 kPa | 758.4
363.15 K, 47996 kPa | 760.9
363.15 K, 49998 kPa | 762.5
363.15 K, 52002 kPa | 764.2
363.15 K, 55003 kPa | 766.6
363.15 K, 57998 kPa | 768.9
363.15 K, 59999 kPa | 770.4
363.16 K, 38458 kPa | 752.5
